The test system of assay [1] is locomotor hyperactivity induced by cocaine and morphine. The assay is described as follows: Locomotor hyperactivity (hypermotility) induced by cocaine and morphine, Videotrack total distance. Type of assay: in vivo, rats. To be noted: for effect on the spontaneous motility of the animal: alone, neboglamine 30 mg/kg, glycine 300 mg/kg i.p. The protocol: The motor activity was measured with a video camera and recorded using the Videotrack 512 system as described by Garofalo (J. Pharm. Pharmacol. 48: 1290-1297, 1996).
The locomotor activity was recorded for 15 minutes and the total distance covered (in cm) by the animal was recorded by the computer connected to the video camera.

For assay [2], the system named is inverse tolerance induced by chronic treatment with morphine. The assay is described as follows: Inverse tolerance (increased sensitivity) induced by chronic treatment with morphine, locomotor activity.
For assay [3], the system named is tolerance and abstinence crisis induced by chronic treatment with diazepam. The assay is described as follows: Elevated zero maze: tolerance and abstinence crisis induced by chronic treatment with diazepam. It is filed as in vivo, rats. The protocol: The experiment was performed in an elevated zero maze in accordance with the procedure described by Shepard et al. (Psychopharmacology 116: 56-64, 1994) with minor changes.
The rat, placed in one of the closed quadrants, had free access to all 4 of the quadrants (2 open and 2 closed) for a period of 5 minutes. A compound with anxiolytic activity produces a percentage increase in the time spent in the free quadrants.
In the acute studies, the compounds were administered via the s.c. route 30 minutes before the experiment, whereas in the tolerance and “withdrawal” experiments, they were administered via the s.c. route twice a day for 7 days and then retested 40 hours after the end of the chronic treatment.

In the next assay the test system is memory and learning. The note with it: various animal models; Garofalo et al. 1996; cited from earlier work.
The test system of assay [4] is locomotor hyperactivity, tolerance and dependency induced by morphine. The note with it: mice; Shin et al. 2003; cited from earlier work.
Where [5] appears, read: substance alone with physiological saline, neboglamine 30 or glycine 300 mg/kg i.p., cocaine 20 or morphine 10 mg/kg s.c., recorded 15 min.
Where [6] appears, read: chronic morphine 10 mg/kg s.c. x 7 days.
The mark [7] stands for this setting: acute, s.c. 30 min before, diazepam 5 mg/kg, neboglamine 30 mg/kg.
The mark [8] stands for this setting: acute, s.c. 30 min before, diazepam 5 mg/kg, neboglamine 30 mg/kg, 5 min test.
[9] abbreviates: withdrawal (D-W): diazepam for 7 days, retested 40 hours later with physiological saline.
[10] abbreviates: drug = morphine 10 mg/kg s.c., neboglamine 30 or glycine 300 mg/kg i.p. 30 min before.
The mark [11] stands for this setting: neboglamine 30 or glycine 300 mg/kg i.p. 30 min before morphine 10 mg/kg s.c.
Where [12] appears, read: neboglamine 30 or glycine 300 mg/kg i.p. 30 min before morphine 10 mg/kg s.c., recorded 15 min.
[13] abbreviates: neboglamine 30 mg/kg s.c. x 2 (x7 days) + 30 co-administered with chronic diazepam (D-C) + 5 (D), tolerance.
Setting [14] is: withdrawal: diazepam and neboglamine for 7 days, retested 40 hours later with physiological saline.
[15] abbreviates: neboglamine 30 mg/kg i.p. 30 min before morphine 10 mg/kg s.c., x 7 days.

Where “and” joins values, the source holds several entries; their conditions need not be identical. Equal values may be shown once.

This is an account of results in US20100197962A1 (priority 2005, published 2010).

Consider `CN1CC[C@]23c4c5ccc(O)c4O[C@H]2[C@@H](O)C=C[C@H]3[C@H]1C5` [Morphine, morphine, reference compound], for which, in assay [1] (setting [5]), the “% increase vs. physiological saline” value was found to be 60.6% and the “Total distance (cm)” value is on record as 5300 cm. Also, in assay [2] (setting [6]), the “% increase vs. physiological saline” value is given as 128.6% and the “Total distance (cm)” value stood at 6400 cm. Moreover, the “increase in the motor activity by chronic treatment compared with the acute effect of the drug” value in assay [2] (chronic vs acute morphine 10 mg/kg s.c.) is “about 50%”.

Turning to `CN1C(=O)CN=C(c2ccccc2)c2cc(Cl)ccc21` [diazepam, reference compound], the “% effect vs. controls (saline)” value in assay [3] (setting [7]) came out at 262.5%; in assay [3] (chronic diazepam (D-C) 5 mg/kg s.c. x 2 (x7 days) + 5 (D), tolerance, 5 mg/kg), 145%; in assay [3] (setting [9]), 37.5%. Moreover, the “Time (seconds) spent in the open quadrants” value in assay [3] (setting [8]) was 105 s; in assay [3] (chronic diazepam (D-C) 5 mg/kg s.c. x 2 (x7 days) + 5 (D), tolerance), 58 s; in assay [3] (setting [9]), 15 s.

As for “(S)-4-amino-N-(4,4-dimethylcyclohexyl)glutamic acid [Neboglamine]”, the “% increase vs. physiological saline” value in assay [1] (30 mg/kg i.p. 30 min before cocaine 20 mg/kg s.c.) is given as 9.1%; in assay [1] (setting [11]) it was 13.6%; in assay [2] (setting [15]), 37.5%. Also, the “Total distance (cm)” value turned out to be 3600 cm in assay [1] (30 mg/kg i.p. 30 min before cocaine 20 mg/kg s.c., recorded 15 min); 3750 cm in assay [1] (setting [12]); 3150 cm in assay [1] (setting [5]); 3850 cm in assay [2] (setting [15]). The “effect on the spontaneous motility of the animal” value in assay [1] is recorded as “do not significantly alter”. Also, the “% inhibition vs. the drug (D)” value was 88% in assay [1] (drug = cocaine 20 mg/kg s.c., 30 mg/kg i.p. 30 min before); 88.0^(1) % in assay [1] (drug = cocaine 20 mg/kg s.c., 30 mg/kg i.p. 30 min before, listed as N); 77.5% in assay [1] (setting [10]); 77.5^(1) % in assay [1] (drug = morphine 10 mg/kg s.c., neboglamine 30 or glycine 300 mg/kg i.p. 30 min before, listed as N). The “% effect vs. controls (saline)” value in assay [3] (setting [7]) came to 127%; in assay [3] (acute, s.c. 30 min before, diazepam 5 mg/kg, neboglamine 30 mg/kg, listed as neboglamine), 127.0%; in assay [3] (setting [13]) it was 192.5%; in assay [3] (setting [14]), 110.0%; in assay [3] (withdrawal: diazepam and neboglamine for 7 days, retested 40 hours later with physiological saline, listed as neboglamine) it was 110%. Moreover, the “Time (seconds) spent in the open quadrants” value is 51 s in assay [3] (setting [8]), 77 s in assay [3] (setting [13]) and 44 s in assay [3] (setting [14]). The “promoting memory and learning” value in the assay on memory and learning is “advantageous properties of promoting memory and learning”. Moreover, the “% inhibition of the hypersensitivity of morphine” value in assay [2] (setting [15]) is 70.8% and 70.8^(1) %.

Consider `NCC(=O)O` [Glycine, glycine, reference compound], for which, in assay [1], the “effect on the spontaneous motility of the animal” value is listed as “do not significantly alter”. In addition, the “% inhibition vs. the drug (D)” value in assay [1] (setting [10]) is given as 52.5%; in assay [1] (drug = morphine 10 mg/kg s.c., neboglamine 30 or glycine 300 mg/kg i.p. 30 min before, listed as G), 52.5^(2) %. Moreover, the “% increase vs. physiological saline” value in assay [1] (setting [11]) is given as 28.8%. The “Total distance (cm)” value in assay [1] (setting [12]) was determined as 4250 cm; in assay [1] (setting [5]), 2900 cm. Further, the “inhibition of morphine-induced locomotor hyperactivity, tolerance and dependency” value in assay [4] was “capable of inhibiting the locomotor hyperactivity, tolerance and dependency induced by morphine”.

For `COC(=O)[C@H]1[C@@H](OC(=O)c2ccccc2)C[C@@H]2CC[C@H]1N2C` [Cocaine, cocaine, reference compound], in assay [1] (setting [5]), the “% increase vs. physiological saline” value stood at 75.7% and the “Total distance (cm)” value turned out to be 5800 cm.
